Experimental findings from patent US7579365B2 (ZIOPHRAM Oncology, Inc., priority 1998, dated 2009) are described below.

Data set [1] is described as follows: in vivo.
The test system of data set [2] is KB. Nature of the data set: Hollow fiber assay on the nude mouse, KB. It is filed as in vivo. From the text:
(§1) In the hollow fiber assay, both compounds were almost equally strongly active, while on L 1210 D-24851 was markedly more strongly active after oral and intraperitoneal administration than D-24241.

In data set [3] the test system is SK-OV-3 cell line. Briefly: XTT proliferation test/cytotoxicity test, SK-OV-3 cell line. It is filed as cell-based. As to conditions: for EC50: Homo sapiens, SK-OV-3, SK-OV-3 tumor cells, read-out: XTT EC50 SK-OV-3. The method, then: (§2) In this test system, the effect of substances on the proliferation behavior of tumor cell lines is investigated. In the course of this, the cytotoxic potential of these substances is determined. The test method is described in Scudiero et al. 1988, Cancer Res. 48, 4827.
(§3) The following tumor cell lines were employed in the investigations:
(§4) The KB cell line an epidermal carcinoma of the oral cavity,
(§5) the L1210 cell line a lymphatic leukemia of the mouse, the LNCAP cell line a prostate carcinoma and the SK-OV-3 cell line an ovarian carcinoma.
A general note: Tetrazolium assays rely on reduction of a dye to a coloured formazan, in cell work by metabolically active cells.

Data set [4] deals with MCF-7. Nature of the data set: Hollow fiber assay on the nude mouse, MCF-7. It is filed as in vivo.
Description: as §1

In data set [5] the test system is KB cell line. Nature of the data set: XTT proliferation test/cytotoxicity test, KB cell line. It counts as cell-based. To be noted: KB tumor cells; for EC50: Homo sapiens, KB, read-out: XTT EC50 KB. The method, then: as §2, §3, §4, §5
The conditions of data set [6]: in vivo; for Tox. i.p.: ip.
Data set [7] concerns LNCAP cell line. Nature of the data set: XTT proliferation test/cytotoxicity test, LNCAP cell line. It counts as cell-based. To be noted: LNCaP tumor cells; for EC50: Homo sapiens, read-out: XTT EC50 LNCaP. The method, then: as §2, §3, §4, §5
For data set [8], the system named is KB. Nature of the data set: KB test on the nude mouse (% WHI). It counts as in vivo. As to conditions: for % WHI: KB.
Data set [9] deals with L1210. Nature of the data set: Hollow fiber assay on the nude mouse, L1210. It counts as in vivo.
Description: as §1

Data set [10] has as its system L1210. Nature of the data set: L1210 leukemia model in vivo (% ILS, survival time). Details: species or system mouse. As to conditions: for Antitumor action on L 1210 (mouse): oral and intraperitoneal administration.
Description: as §1

For data set [11], the system named is L1210 cell line. Briefly: XTT proliferation test/cytotoxicity test, L1210 cell line. It counts as cell-based, mouse. As to conditions: for XTT EC50 L1210: L1210 tumor cells; for EC50: Mus musculus, L1210, L1210 tumor cells, read-out: XTT EC50 L1210. The method, then:
as §2, §3, §4, §5

Data set [12] deals with DNA. Briefly: DNA fragmentation. As to conditions: after administration.
Data set [13] deals with Dunning tumor. Briefly: Dunning tumor in the rat. It counts as in vivo. To be noted: repeated oral administration, 7×100 mg/kg and 7×147 mg/kg p.o.
For data set [14], the system named is SK-OV-3. Nature of the data set: In vivo % WHI printed in the SK-OV-3 column of Table 3.
Data set [15] can be described thus: Hematopoiesis test. To be noted: intraperitoneal administration; listed as D-24851. It counts as in vivo.
Data set [16] relates to L1210. Nature of the data set: L1210 leukemia model in vivo (% ILS, survival time). As to conditions: Mus musculus, L1210, iv.

Converted amounts (≈) assume the structure as drawn. “Also recorded” adds a separate entry of the source. Where two headings read alike, the source gives them in different places.

One may read the LD50 as the dose expected to kill half of the subjects tested. For orientation: EC50 means the concentration that produces a half-maximal response. By ILS is commonly meant the gain in survival time of treated over control animals, in per cent. Regarding `O=C(Nc1ccncc1)C(=O)c1cn(Cc2ccc(F)cc2)c2ccccc12` [Example 1, N-(Pyridin-4-yl)-[1-(4-fluorobenzyl)indol-3-yl]glyoxylamide], the LD50 in [1] (LD50 1 × per os) is more than 1000 mg/kg; in data set [1] (ip, LD50 1 × ip), approximately 158 mg/kg. For the same molecule, the “Hollow fiber intraperitoneal % INH” value is on record as 46% in data set [2] (4 × 15.8 mg/kg ip), “no action” in data set [4] (4 × 15.8 mg/kg ip) and 43% in data set [9] (4 × 15.8 mg/kg ip). For the same molecule, the entries for the “Hollow fiber subcutaneous % INH” value in [2] (4 × 15.8 mg/kg ip), in data set [4] (4 × 15.8 mg/kg ip) and in data set [9] (4 × 15.8 mg/kg ip) were 81%, 33% and 68%, respectively. Further, the results for the EC50 in data set [3], in data set [5] and in data set [7] were 0.17 µg/mL (≈ 0.455 µM), 0.02 µg/mL (≈ 0.0536 µM) and more than 31.6 µg/mL, respectively. Moreover, the “XTT EC50 SK-OV-3” value in [3] (SK-OV-3 tumor cells, listed as D-24241) was “SKOV3 ≈ 0.17 μg/ml”. In addition, the “XTT EC50 KB” value in data set [5] (listed as D-24241) is listed as “KB ≈ 0.02 μg/ml”. Also, the Tox. i.p. result in data set [6] is reported as “≈158 i.p. mg/kg”. Besides, the “XTT EC50 LNCaP” value in data set [7] (listed as D 24241) was more than 31.6 µg/mL; in data set [7] (listed as D-24241), “LNCAP > 31.6 μg/ml”. Further, the “% WHI” value in data set [8] (2 × 46.4 mg/kg ip) was 22%; in [8] (2 × 215 mg/kg po), 47%. The “Antitumor action in the KB test on the nude mouse” value in data set [8] was “antitumor action”. Moreover, in data set [10] (19 × 50 mg/kg per os, listed as D-24241, 50 mg/kg), the “% ILS L1210” value is recorded as 50% ILS. Moreover, the increase in lifespan (ILS) at 464 mg/kg in data set [10] (Mus musculus, L1210, po, 1 × 464 mg/kg per os) is 44%. Also, the increase in lifespan (ILS) at 50 mg/kg in data set [10] (Mus musculus, L1210, po, 19 × 50 mg/kg per os) was 50%. Moreover, the “Antitumor action on L 1210 (mouse)” value in [10] is listed as “strong dose-dependent antitumor action”. The “XTT EC50 L1210” value is 0.170 µg/mL in data set [11] (listed as 1 (D 24241)), “≈0.17 μg/ml” in data set [11] (listed as D 24241) and “L1210 ≈ 0.07 μg/ml” in [11] (listed as D-24241).

As to `O=C(Nc1ccncc1)C(=O)c1cn(Cc2ccc(Cl)cc2)c2ccccc12` [Example 13, N-(Pyridin-4-yl)-[1-(4-chlorobenzyl)indol-3-yl]glyoxylamide], the LD50 in data set [1] (LD50 1 × per os) is 1000 mg/kg; in data set [1] (ip, LD50 1 × ip) it was more than 1000 mg/kg. Besides, the “Hollow fiber subcutaneous % INH” value is given as 44% in [2] (4 × 46 mg/kg ip); 35% in [2] (4 × 147 mg/kg ip); 47% in [4] (4 × 46 mg/kg ip); 68% in data set [4] (4 × 147 mg/kg ip); “no action” in data set [9] (4 × 46 mg/kg ip); 67% in data set [9] (4 × 147 mg/kg ip). In addition, the “Hollow fiber intraperitoneal % INH” value in data set [2] (4 × 147 mg/kg ip) turned out to be 12%; in [4] (4 × 46 mg/kg ip) it was 38%; in data set [4] (4 × 147 mg/kg ip) it was 68%; in data set [9] (4 × 46 mg/kg ip), 56%; in [9] (4 × 147 mg/kg ip), 60%. Further, the half-maximal effective concentration (EC50) in [3] was approximately 0.03 µg/mL (≈ 0.077 µM); in data set [5], approximately 0.017 µg/mL (≈ 0.0436 µM); in [7] (LNCaP), approximately 0.03 µg/mL (≈ 0.077 µM); in data set [11], approximately 0.017 µg/mL (≈ 0.0436 µM). Further, the DNA fragmentation entry in data set [12] is on record as “no DNA fragmentation”. In addition, the “Tumor growth in the Dunning tumor” value is “stoppage of tumor growth and in some animals even tumor regression” in [13] (listed as D24851); “Stoppage of tumor growth, in some animals even tumor regression” in data set [13] (listed as D-24851). For the same molecule, the “LD50 1 × per os” value in [6] is more than 1000 mg/kg. For the same molecule, in data set [6], the Tox. i.p. result was “≈1000 i.p. mg/kg”. Further, the “Antitumor action in the KB test on the nude mouse” value in data set [8] is recorded as “antitumor action”. The ILS at 464 mg/kg in [10] (Mus musculus, L1210, ip, 1 × 464 mg/kg ip) amounted to 18%. The ILS at 681 mg/kg in [10] (Mus musculus, L1210, ip, 1 × 681 mg/kg ip) was 0%; in data set [10] (Mus musculus, L1210, po, 1 × 681 mg/kg po), 22%. Also, the increase in lifespan (ILS) at 147 mg/kg in data set [10] (Mus musculus, L1210, ip, 4 × 147 mg/kg ip) amounted to 94%; in data set [10] (Mus musculus, L1210, ip, 7 × 147 mg/kg ip) it was 59%; in [10] (Mus musculus, L1210, po, 7 × 147 mg/kg po) it was 75%. Moreover, the ILS at 215 mg/kg was determined as 13% in [10] (Mus musculus, L1210, ip, 4 × 215 mg/kg ip) and 31% in data set [10] (Mus musculus, L1210, po, 4 × 215 mg/kg po). Besides, the ILS at 100 mg/kg in data set [10] (Mus musculus, L1210, ip, 7 × 100 mg/kg ip) is 35%; in [10] (Mus musculus, L1210, po, 7 × 100 mg/kg po), 63%. For the same molecule, the “Prolongation of the survival time, L1210” value in data set [10] (intraperitoneal or oral administration, 100 and 147 mg/kg multiple dose) was “distinct dose-dependent prolongation of the survival time”. In addition, the “Antitumor action on L 1210 (mouse)” value in data set [10] is on record as “strong dose-dependent antitumor action”. The results for the “% WHI” value in data set [14] (2 × 215 mg/kg po) and in data set [14] (7 × 46 mg/kg ip) were 18% and 33%, respectively. Further, the “Blood parameters in the hematopoiesis test” value in [15] was “none of the blood parameters investigated were modified; also recorded: none of the blood parameters investigated were altered”.

As for `CC(=O)O[C@H]1C(=O)[C@@]2(C)[C@H]([C@H](OC(=O)c3ccccc3)[C@]3(O)C[C@H](OC(=O)[C@H](O)[C@@H](NC(=O)c4ccccc4)c4ccccc4)C(C)=C1C3(C)C)[C@]1(OC(C)=O)CO[C@@H]1C[C@@H]2O` [Taxol, reference compound], the EC50 in [3], in [5], in [7] (LNCaP) and in data set [11] was less than 0.003 µg/mL in each case. The Tox. i.p. entry in data set [6] was “≈158 i.p. mg/kg”. In data set [16] (1 × 14.7 mg/kg i.v.), this molecule came in with an ILS at 14.7 mg/kg of 22%. For the same molecule, in [16] (1 × 46.4 mg/kg i.v.), the ILS at 46.4 mg/kg worked out at 61%.
